Data on five compounds can be found in patent US12421499B2, “Method of differentiation of human pluripotent stem cells to monohormonal cells” (Cornell University, priority 2018, dated 2025).

The test system of assay [1] is GLIS3−/− PP2-β cells. Put plainly: Cell death rate (PI+ INS+ cells in INS+ cells), propidium iodide staining. Type of assay: cell-based, human. The settings on record: for cell death rate: INS-GFP+ GLIS3−/− PP2-β cells. How it is done: Propium iodide cell viability staining. Cells at D30_L were dissociated using Accutase and replated onto 96-well plates coated with 804-G conditioned medium. Once attached, cells were stained by 2.5 μg mL^−1 propium iodide in DMEM for 12 min, washed once with DMEM and fixed with 4% paraformaldehyde for 20 min. DAPI was used to quantify total number of cells after fixation. Plates were analyzed using a Molecular Devices ImageXpress High-Content Analysis System. Data was quantified using MetaXpress software.

Assay [2] concerns GLIS3−/− PP2-β cells. Put plainly: Cell apoptosis rate (cleaved caspase-3+ INS+ cells in INS+ cells) and INS+ cell number, high content imaging. Type of assay: cell-based, human. The conditions noted are these: for cell apoptosis rate: INS-GFP+ GLIS3−/− PP2-β cells. On the procedure: Immunofluorescence staining. Cells were fixed in 4% paraformaldehyde solution (Affymetrix) for 20 min, then blocked and permeabilized in PBS solution containing 5% horse serum and 0.3% Triton for 1 hr at room temperature. The cells were incubated with primary antibodies overnight at 4 C followed by 1 hr incubation with fluorescence-conjugated secondary antibodies (Alexafluor, ThermoFisher Scientific) at RT. For pSMAD2/3 staining, cells were permeabilized with ice-cold methanol at ˜20 C for 10 min after fixation and prior to blocking. The following primary antibodies were used: anti-OCT4 (1:200, Santa Cruz), anti-SOX17 (1:500, R&D), anti-PDX1 (1:500, R&D), anti-SOX9 (1:1000, Millipore), anti-NKX6.1 (1:500, DSHB), anti-NKX2.2 (1:500, DSHB), anti-PAX6 (1:1000, Covance), anti-ISL1 (1:200, DSHB), anti-UCN3 (1:500, Phoenix Pharmaceuticals), anti-NGN3 (1:500, R&D), anti-chromogranin A (1:1000, Immunostar), anti-glucagon (1:2000, Sigma) anti-somatostatin (1:1000, DAKO), anti-ghrelin (1:500, Santa Cruz), anti-insulin (1:500, DAKO) and anti-cleaved caspase-3 (1:1000, BD Biosciences), anti-pSMAD2/3 (1:200, Cell Signaling).
High throughput chemical screening. To perform the high throughput small molecule screening, GLIS3^−/− cells at D26_L were dissociated using Accutase and replated onto 804G-coated 384-well plates at 20,000 cells/80 μl medium/well. After 8 hr, cells were treated at 1 μM and 10 μM with compounds from an in-house library of 300 signaling pathway modulators, an epigenetics library (Cayman Chemical), Prestwick library of approved drugs (FDA, EMA and other agencies), LOPAC (Sigma Aldrich) and the MicroSource library totaling 5000 chemicals. DMSO treatment was used as a negative control. Untreated wells containing WT cells were included as positive control. After 4 days of culture, cells were first stained with 2.5 μg/mL PI and then fixed and stained using antibodies against Insulin (DAKO) and cleaved caspase-3 (BD biosciences). Plates were analyzed using a Molecular Devices ImageXpress High-Content Analysis System. Two-dimensional analysis was used. Compounds inducing lower % cleaved caspase-3 (Z-score<−1.5) and a similar or higher number of INS^+ cells compared to DMSO treated wells were selected as primary hits.

In assay [3] the test system is GLIS3−/− PP2 cells transplanted under the kidney capsule. Put plainly: In vivo transplantation and drug treatment, graft apoptosis by immunohistochemistry. The conditions noted are these: 15 mg/kg/day intraperitoneal for seven days, vs vehicle. Set-up: species or system SCID-beige mice. How it is done:
In vivo transplantation and drug treatment. WT and isogenic mutant hESCs at day 24 of differentiation (around 1 million cells) were harvested by cell scraper, mixed with 20 μl Matrigel (Corning) and transplanted under the kidney capsule of 6-8 weeks old male SCID-beige mice. For drug treatment, mice were injected intraperitoneally with 15 mg/kg/day galunisertib or vehicle for seven days. To prepare the injection cocktail, 200 mM galunisertib in DMSO was diluted ˜15 times with a 50:50 mixture of PEG300 (Sigma Aldrich) and saline (APP Pharmaceuticals). All animal work was conducted in agreement with NIH guidelines and approved by the local Institutional Animal Care and Use Committee (IACUC), the Institutional Biosafety Committee (IBC) as well as the Embryonic Stem Cell Research Committee (ESCRO).
Immunohistochemistry. Mouse kidneys with cells grafted under the capsules were washed with PBS, fixed with 4% paraformaldehyde at 4C overnight and transferred to 30% sucrose solution for dehydration. […] The slides were blocked and permeabilized in PBS solution containing 5% horse serum and 0.3% Triton for 1 hr at RT and then incubated with primary antibodies overnight at 4C followed by 1 hr incubation with fluorescence-conjugated secondary antibodies (Alexafluor, ThermoFisher Scientific) at RT. […] Fluorescent images were scored using MetaMorph® image analysis software (Molecular Devices).

Assay [4] has as its system WT INS-GFP+ PP2-β cells. The experiment in a line: Annexin V apoptosis analysis in wild-type cells. The class given is cell-based, human. The settings on record: 10 μM. How it is done: Annexin V cellular apoptosis analysis. hESC derived cells were dissociated by Accutase and washed with cold PBS, stained with the PE/Annexin V apoptosis detection Kit (BD Bioscience, 559763) or A647-conjugated annexin V (Thermo Fisher Scientific) according to manufacturer's instructions, the samples were the analyzed by flow cytometry (BD Bioscience, FASC ARIA2) within 30 min. To include a positive control for apoptosis, cells were incubated with 10 μM Camptothecin (Sigma Aldrich) or DMSO for 4 hours prior to Annexin V staining.

Assay [5] has as its system SMAD2/3 phosphorylation. The experiment in a line: Western blot of SMAD2/3 phosphorylation. Type of assay: cell-based, human. The conditions noted are these: 10 μM; GLIS3−/− cells at D30_L; vs DMSO. On the procedure:
Western blot analysis. Whole-cell lysates were generated by scraping cultures on day 24 of differentiation in cold PBS, and re-suspending in complete lysis buffer (20 mM Tris pH 7.0, 150 mM NaCl, 50 mM NaF, 1% NP-40 substitute, and Thermo Scientific HALT protease inhibitor cocktail 1:100). Lysates were loaded onto 10% NuPage Bis-Tris gels (Invitrogen), resolved by electrophoresis, and transferred to PVDF membranes (Bio-Rad). Membranes were blocked with 5% bovine serum albumin in TBS+ 0.05% Tween and probed overnight with primary antibody. The antibodies were rabbit anti-phospho-SMAD2/3 (1:250, Cell Signaling), rabbit anti-SMAD2/3 XP (1:5000, Cell Signaling), and mouse anti-β-actin (1:50000, Sigma A1978). Membranes were washed and incubated for 1 hr with HRP-conjugated secondary antibody (Bio-Rad) in 5% milk-TBS-0.05% Tween and developed using SuperSignal West Pico (Thermo Scientific) or Immobilon (Millipore) ECL substrate.
In general terms: A western blot detects proteins with antibodies after separation by electrophoresis.

The mark [6] stands for this setting: 10 μM, GLIS3−/− cells at D30_L, vs DMSO.

pIC50: −log10 of the molar value.

For the compound `NC(=O)c1ccc(-c2nc(-c3ccccn3)c(-c3ccc4c(c3)OCO4)[nH]2)cc1` [SB431642], in assay [1] (1 μM), the cell death rate result is reported as “significantly decrease”. In assay [2] (1 μM), the cell apoptosis rate entry was “significantly decrease”.
As to `Cc1cccc(-c2nn(C(=S)Nc3ccccc3)cc2-c2ccnc3ccccc23)n1` [A83-01], the cell death rate result in assay [1] (10 μM) is recorded as “significantly decrease”. Further, in assay [2] (10 μM), the cell apoptosis rate entry is “significantly decrease”.
In the case of `c1ccc(-c2[nH]ncc2-c2ccnc3ccccc23)nc1` [LY-364947], in assay [1] (10 μM), the cell death rate result is recorded as “significantly decrease”. Besides, in assay [2] (10 μM), the cell apoptosis rate result is listed as “significantly decrease”.
The pIC50 is the IC50 on a negative log10 scale, so that one unit is a factor of ten. Regarding `Cc1cccc(-c2nn3c(c2-c2ccnc4ccc(C(N)=O)cc24)CCC3)n1` [galunisertib], in assay [1] (setting [6]), the cell death entry is on record as “significantly reduces”. Besides, the “cell apoptosis rate in the transplanted cells (cleaved caspase-3+/STEM121+ cells in STEM121+ cells)” value in assay [3] (cells pre-treated with 10 μM for 16 hr) is “significantly decreases”. For the same compound, the “cell apoptosis rate in INS+ and PDX1+ cells in the grafts” value in assay [3] is on record as “significantly decreases”. Besides, the “cell apoptosis of WT INS+ cells” value in assay [4] was “does not affect”. The “number of INS+ cells” value in assay [2] (10 μM, GLIS3−/− PP2-β cells, normalized to DMSO) is reported as “increases”. Besides, the cell apoptosis entry in assay [2] (setting [6]) is “significantly reduces”. The pIC50 in assay [2] (Homo sapiens, dose-dependent, inhibitory curve FIG. 4c, read-out: IC50, rescue of loss of GLIS3-induced pancreatic β-cell apoptosis) was 5.94. Further, in assay [5], the “increased SMAD2/3 phosphorylation” value was “inhibits”.
On to `Cc1cccc(-c2[nH]c(C(C)(C)C)nc2-c2ccc3nccnc3c2)n1` [SB525334], for which, in assay [1] (1 μM), the cell death rate entry is “significantly decrease”. Besides, in assay [2] (1 μM), the cell apoptosis rate result is recorded as “significantly decrease”.
